This note sets out measurements from patent US20250171438A1 (Agios Pharmaceuticals, Inc., priority 2022, published 2025).

Where only a bound is given, the exact number is not on record here.

The target of one experiment is T1, human PAH with the R408W mutation (Homo sapiens, UniProt P00439, R408W).
T1 construct: expressed in transfected cells
T1 sequence (P00439 1-452 R408W): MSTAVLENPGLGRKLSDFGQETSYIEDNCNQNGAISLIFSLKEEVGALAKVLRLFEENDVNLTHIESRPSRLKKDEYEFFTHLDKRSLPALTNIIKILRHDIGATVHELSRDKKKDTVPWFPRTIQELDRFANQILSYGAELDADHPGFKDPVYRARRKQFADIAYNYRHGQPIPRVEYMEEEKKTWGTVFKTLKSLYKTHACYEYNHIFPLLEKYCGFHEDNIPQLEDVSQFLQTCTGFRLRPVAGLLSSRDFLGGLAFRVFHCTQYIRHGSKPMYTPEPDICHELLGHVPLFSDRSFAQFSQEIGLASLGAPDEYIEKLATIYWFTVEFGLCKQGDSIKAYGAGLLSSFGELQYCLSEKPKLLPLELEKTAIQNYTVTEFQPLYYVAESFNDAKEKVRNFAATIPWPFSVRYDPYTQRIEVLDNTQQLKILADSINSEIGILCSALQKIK
Kind of experiment: Cell Based Phenylalanine Flux Assay. Details: scale not given here. The following applies: A375 cells expressing human R408W PAH; 24 hrs compound incubation; 13C-Tyrosine by LC-MS; average where tested multiple times; read-out: AC50.
Regarding `O=C(c1oc(C2(O)CCC2)nc1C(F)(F)F)N1CCCc2[nH]cnc2[C@@H]1c1nc2ccccc2s1` [Example 2138, (R)-(4-(benzo[d]thiazol-2-yl)-7,8-dihydroimidazo[4,5-c]azepin-5(1H,4H,6H)-yl)(2-(1-hydroxycyclobutyl)-4-(trifluoromethyl)oxazol-5-yl)methanone], the AC50 was in the range of 1 to 5 µM.
Still for that read-out and setting: then `Cc1nc(-c2cnn(CC(F)(F)F)c2)oc1C(=O)N1CCc2[nH]cnc2[C@@H]1c1nc2c(F)cccc2s1` [Example 1505, (R)-(4-(4-fluorobenzo[d]thiazol-2-yl)-6,7-dihydro-1H-imidazo[4,5-c]pyridin-5(4H)-yl)(4-methyl-2-(1-(2,2,2-trifluoroethyl)-1H-pyrazol-4-yl)oxazol-5-yl)methanone], with 1 to 5 µM.
On the same count and under the same terms, then `O=C(CC1CC1(F)F)N1CCc2[nH]cnc2[C@H]1c1nc2ccccc2s1` (single isomer, unassigned) [Example 1274], with 0.5 to 1 µM.
On to `O=C(c1cnn2cc(F)ccc12)N1CCc2[nH]cnc2[C@H]1c1nc2ccccc2[nH]1` [Example 924, (S)-(4-(1H-benzo[d]imidazol-2-yl)-6,7-dihydro-1H-imidazo[4,5-c]pyridin-5(4H)-yl)(6-fluoropyrazolo[1,5-a]pyridin-3-yl)methanone], for which the AC50 is 0.5 to 1 µM.
Still for that read-out and setting: to `O=C(c1oc(OCCC(F)(F)F)nc1C(F)F)N1CCc2[nH]cnc2[C@H]1c1nc2ccccc2s1` [Example 1772] belongs less than 0.5 µM.
Still for that read-out and setting: to `CC(C)(O)c1nc(Br)c(C(=O)N2CCc3[nH]cnc3[C@@H]2c2nc3c(F)cccc3s2)s1` [Example 2094, (R)-(4-bromo-2-(2-hydroxypropan-2-yl)thiazol-5-yl)(4-(4-fluorobenzo[d]thiazol-2-yl)-6,7-dihydro-1H-imidazo[4,5-c]pyridin-5(4H)-yl)methanone] belongs 1 to 5 µM.
Still for that read-out and setting: to `O=C(CCc1nccs1)N1CCc2[nH]cnc2[C@H]1c1ncc(Br)s1` [Example 2148] belongs 1 to 5 µM; to `Cc1nnc(C(=O)N2CCc3[nH]cnc3[C@@H]2c2nc3c(F)cccc3s2)o1` [Example 1466, (R)-(4-(4-fluorobenzo[d]thiazol-2-yl)-6,7-dihydro-1H-imidazo[4,5-c]pyridin-5(4H)-yl)(5-methyl-1,3,4-oxadiazol-2-yl)methanone], 1 to 5 µM.
With `CC1(C)CC=C(c2ncc(C(=O)N3CCc4[nH]cnc4[C@H]3c3nc4ccccc4s3)s2)CC1` [Example 1351], the AC50 was 0.5 to 1 µM.
Still for that read-out and setting: to `O=C(c1nnc(-c2ccn(C(F)F)n2)o1)N1CCc2[nH]cnc2[C@@H]1c1nc2c(F)cccc2s1` [Example 1887, (R)-(5-(1-(difluoromethyl)-1H-pyrazol-3-yl)-1,3,4-oxadiazol-2-yl)(4-(4-fluorobenzo[d]thiazol-2-yl)-6,7-dihydro-1H-imidazo[4,5-c]pyridin-5(4H)-yl)methanone] belongs 1 to 5 µM; to `O=C(CC1(O)CCC1)N1CCc2[nH]cnc2[C@@H]1c1nc2c(F)cccc2s1` [Example 1648, (R)-1-(4-(4-fluorobenzo[d]thiazol-2-yl)-6,7-dihydro-1H-imidazo[4,5-c]pyridin-5(4H)-yl)-2-(1-hydroxycyclobutyl)ethanone], 1 to 5 µM.

Staying with this experiment, now noted: A375 cells expressing human R408W PAH; 24 hrs with compound; 13C-Tyrosine by LC-MS; average where tested multiple times.
Regarding `Fc1ccc2nc(N3CCc4[nH]cnc4C3c3nc4ccccc4s3)oc2c1` (stereo not shown), the AC50 result was “E, E”.
In the case of `Cn1cc(-c2nc(C(F)(F)F)c(C(=O)N3CCc4[nH]cnc4C3c3nc4ccccc4s3)o2)cn1` (stereo not shown), the AC50 result is recorded as “E, E”.

The experiment is the same for the next values; noted with them: A375 cells expressing human R408W PAH; 24 hrs with compound; 13C-Tyrosine by LC-MS; average where tested multiple times; read-out: AC50.
With `O=C(c1oc(C=CC2CC2)nc1C(F)(F)F)N1CCCc2[nH]cnc2C1c1nc2ccccc2s1` (stereo not shown), the AC50 was more than 5 µM.
The same measure, in the same setting: then `O=C(Cc1nc(C(F)(F)F)cs1)N1CCc2[nH]cnc2C1c1nc2ccc(Br)cc2[nH]1` (stereo not shown), with more than 5 µM; and `CC(=O)Cn1ncc(C(=O)N2CCc3[nH]cnc3C2c2nc3c(F)cccc3s2)c1Cl` (stereo not shown), with 1 to 5 µM; and `Cc1nnc(CCC(=O)N2CCc3[nH]cnc3C2c2nc3ccc(Cl)cc3[nH]2)s1` (stereo not shown), with more than 5 µM.
On the same count and under the same terms, to `CN(C)Cc1cc(C(=O)N2CCc3[nH]cnc3C2c2nc3c(F)cccc3s2)n(C)n1` (stereo not shown) belongs more than 5 µM; to `Cc1nc(NC2CC2)oc1C(=O)N1CCCc2[nH]cnc2C1c1nc2ccccc2s1` (stereo not shown), more than 5 µM.
